Where two headings read alike, the source gives them in different places.
B1: caprine kobuvirus: "IRES sourced from the indicated virus" in circular RNA constructs "encoding anti-murine CD19 CAR" (nucleic acid)
DNA: GTGGCCACGCCCGGGCCACCGATACTTCCCTTCACTCCTTCGGGACTGTTGGGGAGGAACACAACAGGGCTCCCCTGTTTTCCCATTCCTTCCCCCTTTTCCCAACCCCAACCGCCGTATCTGGTGGCGGCAAGACACACGGGTCTTTCCCTCTAAAGCACAATTGTGTGTGTGTCCCAGGTCCTCCTGCGTACGGTGCGGGAGTGCTCCCACCCAACTGTTGTAAGCCTGTCCAACGCGTCGTCCTGGCAAGACTATGACGTCGCATGTTCCGCTGCGGATGCCGACCGGGTAACCGGTTCCCCAGTGTGTGTAGTGCGATCTTCCAGGTCCTCCTGGTTGGCGTTGTCCAGAAACTGCTTCAGGTAAGTGGGGTGTGCCCAATCCCTACAAAGGTTGATTCTTTCACCACCTTAGGAATGCTCCGGAGGTACCCCAGCAACAGCTGGGATCTGACCGGAGGCTAATTGTCTACGGGTGGTGTTTCCTTTTTCTTTTCACACAACTCTACTGCGTACAACTCACTGACTATCCACTTGCTCTGTCACG
modifications: Description of Unknown: CK1.4; Caprine Kobuvirus variant sequence
B2: CK-739 IRES: "the IRES having the sequence of SEQ ID NO: 3282"; "had a long scanning tract" (nucleic acid)
DNA: B1 DNA
modifications: Description of Unknown: CK1.4; Caprine Kobuvirus variant sequence

Columns and labels:
splenic immune cells = experiment: Cre circRNA LNP transfection of splenic immune cells in Ai9 Cre reporter mice (tdTomato); format: in vivo; details: 0.5 mg/kg Cre circRNA LNP i.v., 48 hr, named by ionizable lipid
Protocol: Circular RNAs encoding Cre recombinase (Cre) are encapsulated into lipid nanoparticles as previously described. Female, 6-8 week old B6.Cg-Gt(ROSA)26Sortm9(CAG-tdTomato)Hze/J (Ai9) mice were dosed with lipid nanoparticles at 0.5 mg/kg RNA intravenously. Fluorescent tdTomato protein was transcribed and translated in Ai9 mice upon Cre recombination, meaning circular RNAs have been delivered to and translated in tdTomato+ cells. After 48 hr, mice were euthanized and the spleens were harvested, processed into a single cell suspension, and stained with various fluorophore-conjugated antibodies for immunophenotyping via flow cytometry.
Ai9 mice (B6.Cg-Gt(ROSA)26Sortm9(CAG-tdTomato)Hze/J, female, 6-8 weeks, n=3 per group) were injected i.v. with 0.5 mg/kg Cre circRNA LNPs or PBS. Ai9 mice transcribe and translate the fluorescent reporter tdTomato upon Cre recombination; meaning cells which are tdTomato+ have successfully been transfected with Cre circRNA. […] Flow cytometry was performed using an Attune Nxt Flow Cytometer (Thermo).

[1] = In vivo FLuc expression by IVIS (whole body and organs) after LNP-circRNA dosing; set-up: species or system CD-1 or c57BL/6J mice; details: mice, 0.5 mg/kg luciferase circRNA LNP i.v., named by ionizable lipid
Protocol: Circular or linear RNA encoding FLuc was generated and loaded into transfer vehicles with the following formulation: 50% ionizable Lipid 10b-15 represented by
10% DSPC, 1.5% PEG-DMG, 38.5% cholesterol. CD-1 mice were dosed at 0.2 mg/kg and luminescence was measured at 6 hours (live IVIS) and 24 hours (live IVIS and ex vivo IVIS). Total Flux (photons/second over a region of interest) of the liver, spleen, kidney, lung, and heart was measured (FIGS. 25 and 26).
Female CD-1 or female c57BL/6J mice ranging from 22-25 g were dosed at 0.5 mg/kg RNA intravenously. Six hours after injection, mice were injected intraperitoneally with 200 μL of D-luciferin at 15 mg/mL concentration. 5 minutes after injection, mice were anesthetized using isoflurane, and placed inside the IVIS Spectrum In Vivo Imaging System (Perkin Elmer) with dorsal side up. Post 10 minutes injection, mice were scanned for luminescence. Mice were euthanized and organs were extracted within 25 minutes of luciferin injection to scan for luminescence in liver, spleen, kidneys, lungs, and heart. Images (FIGS. 33A-B, 34A-B, 35A-B) were analyzed using Living Images (Perkin Elmer) software. Regions of interest were drawn to obtain flux and average radiance and analyzed for biodistribution of protein expression (FIG. 32A-B).

[2] = cited from earlier work
[3] = RNA encapsulation / entrapment by Ribogreen assay; format: physicochemical; details: LNPs with circular RNA, named by ionizable lipid
Protocol: A QUANT-ITT- RIBOGREEN® RNA assay (Invitrogen Corporation Carlsbad, CA) can be used to evaluate the encapsulation of circRNA by the nanoparticle composition. The samples are diluted to a concentration of approximately 5 μg/mL or 1 μg/mL in a TE buffer solution (10 mM Tris-HCl, 1 mM EDTA, pH 7.5). 50 μL of the diluted samples are transferred to a polystyrene 96 well plate and either 50 μL of TE buffer or 50 μL of a 2-4% Triton X-100 solution is added to the wells. The plate is incubated at a temperature of 37° C. for 15 minutes. The RIBOGREEN® reagent is diluted 1:100 or 1:200 in TE buffer, and 100 μL of this solution is added to each well. The fluorescence intensity can be measured using a fluorescence plate reader (Wallac Victor 1420 Multilabel Counter; Perkin Elmer, Waltham, MA) at an excitation wavelength of, for example, about 480 nm and an emission wavelength of, for example, about 520 nm. The fluorescence values of the reagent blank are subtracted from that of each of the samples and the percentage of free circRNA is determined by dividing the fluorescence intensity of the intact sample (without addition of Triton X-100) by the fluorescence value of the disrupted sample (caused by the addition of Triton X-100). C.
For transfer vehicle compositions including RNA, a QUANT-IT- RIBOGREEN® RNA assay (Invitrogen Corporation Carlsbad, CA) can be used to evaluate the encapsulation of RNA by the transfer vehicle composition. […] The fluorescence intensity can be measured using a fluorescence plate reader (Wallac Victor 1420 Multilablel Counter; Perkin Elmer, Waltham, MA) at an excitation wavelength of, for example, about 480 nm and an emission wavelength of, for example, about 520 nm. The fluorescence values of the reagent blank are subtracted from that of each of the samples and the percentage of free RNA is determined by dividing the fluorescence intensity of the intact sample (without addition of Triton X-100) by the fluorescence value of the disrupted sample (caused by the addition of Triton X-100). […]

[4] = LNP particle size (Z-average) and polydispersity index by dynamic light scattering; format: physicochemical; details: LNPs with circular RNA, named by ionizable lipid; for Z-Average(nm): in PBS pH 7.4
Protocol: The microfluidic chamber is cleaned with ethanol and neMYSIS syringe pumps are prepared by loading a syringe with the RNA solution and another syringe with the ethanolic lipid. Both syringes are loaded and under the control of neMESYS software. The solutions are then applied to the mixing chip at an aqueous to organic phase ratio of 2 and a total flow rate of 22 ml/min (14.67 ml/min for RNA and 7.33 ml/min for the lipid solution. Both pumps are started synchronously. The mixer solution that flowed from the microfluidic chip is collected in 4×1 ml fractions with the first fraction being discarded as waste. The remaining solution containing the circRNA-transfer vehicles is exchanged by using G-25 mini desalting columns to 10 mM Tris-HCl, 1 mM EDTA, at pH 7.5, as described above. Following buffer exchange, the materials are characterized for size, and RNA entrapment through DLS analysis and Ribogreen assays, respectively.
(§1) Dialyzed LNPs were filtered using 0.2 μm filter. Prior to in vivo dosing, LNPs were diluted in PBS. LNP sizes were determined by dynamic light scattering. A cuvette with 1 mL of 20 μg/mL LNPs in PBS (pH 7.4) was measured for Z-average using the Malvern Panalytical Zetasizer Pro. The Z-average and polydispersity index were recorded.
as §1

1C1C7 cells [5] = experiment: Anti-murine CD19 CAR expression in lipotransfected 1C1C7 cells; format: cell-based; details: 24 hours after lipotransfection, circRNA named by IRES source virus
Protocol: After 24 hours, 1C1C7 cells were incubated with His-tagged recombinant murine CD19 (Sino Biological) protein, then stained with a secondary anti-His antibody. Afterwards, the cells were analyzed via flow cytometry.

1C1C7 cells [6] = experiment: Gaussia luciferase expression and stability by IRES in 1C1C7 cells; details: 1C1C7, 24 and 48 hours

Molecule	RNA Entrapment(%) [3] [%]	PDI [4]	Z-Average(nm) [4] [nm]	also measured
CCCCCCCCCOC(=O)CCCCCCCN(CCO)CCCCCCCC(=O)OC(CCCCCCCC)CCCCCCCC [Lipid 10b-15]				splenic immune cells expressing tdTomato (splenic immune cells): effective at delivering circular RNAs to many splenic immune cell subsets; ex vivo IVIS tissue expression and spleen to liver ratio [1]: maintaining the desired spleen to liver ratios
CCCCCCCCOC(=O)CCCCCCCCCN(CCCCCCCCCC(=O)OCCCCCCCC)CCN(C)C [Lipid I-13]				pKa ([2]; Table 1, Representative Lipids of Formula I): 6.15
CCCCCCCCC(CCCCCC)C(=O)OCCCCCCN(CCCCCCOC(=O)C(CCCCCC)CCCCCCCC)CCCn1ccnc1 (centres unmarked) [Lipid 10a-26, ((3-(1H-imidazol-1-yl)propyl)azanediyl)bis(hexane-6,1-diyl) bis(2-hexyldecanoate)]	96	0.04	84	whole-body total flux (IVIS) ([1]; 6 hours): increased whole-body total flux; ex vivo IVIS tissue expression and spleen to liver ratio [1]: increased overall expression
CCCCCCCCCCCCCCSCCOC(=O)CCN(CCCn1ccnc1C)CCC(=O)OCCSCCCCCCCCCCCCCC [Lipid 22-S14, bis(2-(tetradecylthio)ethyl) 3,3′-((3-(2-methyl-1H-imidazol-1-yl)propyl)azanediyl)dipropionate]	97	0.05	64	
CCCCCCCCCCCCCCSCCOC(=O)CCN(CCCn1ccnc1)CCC(=O)OCCSCCCCCCCCCCCCCC [Lipid 93-S14, bis(2-(tetradecylthio)ethyl) 3,3′-((3-(1H-imidazol-1-yl)propyl)azanediyl)dipropionate]	95	0.04	74	
CCCCCCCCC(CCCCCCCC)COC(=O)CCCCN(CCCCO)CCCCC(=O)OCC(CCCCCCCC)CCCCCCCC [III-15]				pKa ([2]; Table 3, Representative Compounds of Formula (III)): 6.14
B1				anti-mouse CD19 CAR expression (1C1C7 cells [5]): capable of driving expression of an anti-mouse CD19 CAR
B2				expression after terminal or scanning tract deletions of the IRES (1C1C7 cells [6]): relatively unaffected by deletions in the scanning tract
